This is an account of results in patent US20160193202A1, “THERAPEUTIC TREATMENT FOR DRUG POISONING AND ADDICTION” (ADISPELL, INC., priority 2013, published 2016).

Where “and” joins values, the source holds several entries; their conditions need not be identical. Equal entries are not always repeated. Entries after “also recorded” stand apart in the source; their conditions may differ. Where two headings read alike, the source gives them in different places.

Data set [1] deals with nicotinic acetylcholine receptor (Mus musculus, UniProt P02716+P04756+P04760+P09690). The conditions noted are these: cited from earlier work.
Data set [2] concerns rats. The data set can be described thus: Morris water maze probe trial with scopolamine. The conditions noted are these: for Morris water maze individual swimming trace, finding of target area: individual rat, FIGS. 1A-1C. It is filed as in vivo, rat. The source says: The Morris water maze for rats (San Diego Instruments) uses a 70 inch diameter swimming tank, in which rats, one at a time, are placed to determine the swimming time taken to find a platform, which can be visible or submerged, and is placed randomly in the tank, with its position locatable by means of navigation in response to visible clues. A video camera is positioned to record the swimming path of the rat, and computer analysis of the path permits accurate assessment of elapsed time, distance traveled, and route taken to achieve particular objectives. This technique is used to study memory, learning and spatial working, in healthy, diseased, and drug-affected states. The test can be applied acutely (probe test) or can involve considerable training and repeat measure experimental designs. The term “latency” in the context of the Morris water maze is used to depict the relation of time taken to escape from the water (Morris R., “Development of a Water-Maze Procedure for Studying Spatial Learning in The Rat,” Journal of Neuroscience Methods 11:47-60 (1984) and Wongwitdecha et al., “Effects of Social Isolation Rearing on Learning in the Morris Water Maze,” Brain Research 715:119-124 (1996), both of which are hereby incorporated by reference in their entirety).
This was a single dose probe trial in normal healthy rats with the objective of determining whether: (a) there is an effect in raising cognitive efficiency in unimpaired rats and (b) impairment caused by scopolamine can be reversed by EME.
FIGS. 1A-1C show three individual swimming traces for rats treated with a control vehicle (FIG. 1A), a combined dose of ecgonine methyl ester (EME) (10 mg/kg) and scopolamine (1 mg/kg) (FIG. 1B), and a single dose of scopolamine (1 mg/kg) (FIG. 1C). The target area was in the “south west” or bottom left quadrant of the bath. […] This observation was significant (p<0.05).
The group results in this probe trial with vehicle (VEH), EME alone, scopolamine alone, and EME plus scopolamine in the acute dose Morris water maze experiment are shown in FIG. 2. In particular, column 1 depicts the probe test results for the vehicle, column 2 depicts probe test results for EME alone, column 3 depicts probe test results for scopolamine alone, and column 4 depicts probe test results for EME in combination with scopolamine.

For data set [3], the target named is T1, BC3H1 nicotinic acetylcholine receptor (Mus musculus, UniProt P02716+P04756+P04760+P09690).
T1 construct: endogenous in cells; host or cells: BC3H1 cells
The conditions noted are these: 100 μM carbamoylcholine, cited from earlier work.

Data set [4] concerns mice. The settings on record: mice pretreated with EME 50 mg/kg, 126 mg/kg cocaine five minutes later; survivors/animals; cited from earlier work.
Data set [5] can be described thus: in vivo. The conditions noted are these: rat, brain and plasma, ip, 10 mg/kg.
Procedure: (§1) Plasma and Brain Concentrations after Intraperitoneal Doses—Twenty young adult rats in groups of four were given intraperitoneal doses of 10 mg/kg, and killed and dissected at various times after dosing. Brain and plasma concentrations were assessed by GC-MS. Samples were pre-dose, and at 1, 2, 4 and 24 hours after the dose. Each point is the mean value from four rats.
Data set [6] can be described thus: Brain and plasma concentrations after 10 mg/kg intraperitoneal doses (GC-MS).
Procedure: as §1
Where [7] appears, read: range where effects of multiple Class 1 compounds were alleviated, read-out: KD(Alv).
Setting [8] is: read-out: KD(Alv), range where effects of multiple Class 1 compounds were alleviated.

Chain of nicotinic acetylcholine receptor (P04756 21-457): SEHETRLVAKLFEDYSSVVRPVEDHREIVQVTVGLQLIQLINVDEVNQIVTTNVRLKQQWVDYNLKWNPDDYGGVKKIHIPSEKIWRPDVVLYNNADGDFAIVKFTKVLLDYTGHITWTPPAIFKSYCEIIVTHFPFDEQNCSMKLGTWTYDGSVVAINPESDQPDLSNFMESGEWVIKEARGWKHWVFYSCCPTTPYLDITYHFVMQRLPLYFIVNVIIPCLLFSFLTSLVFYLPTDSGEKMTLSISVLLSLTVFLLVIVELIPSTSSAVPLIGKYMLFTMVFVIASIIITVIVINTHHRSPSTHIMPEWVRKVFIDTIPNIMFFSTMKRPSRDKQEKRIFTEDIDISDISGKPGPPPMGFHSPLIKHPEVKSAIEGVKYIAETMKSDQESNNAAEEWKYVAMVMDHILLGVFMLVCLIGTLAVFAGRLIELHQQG
Chain of nicotinic acetylcholine receptor (P09690 24-501): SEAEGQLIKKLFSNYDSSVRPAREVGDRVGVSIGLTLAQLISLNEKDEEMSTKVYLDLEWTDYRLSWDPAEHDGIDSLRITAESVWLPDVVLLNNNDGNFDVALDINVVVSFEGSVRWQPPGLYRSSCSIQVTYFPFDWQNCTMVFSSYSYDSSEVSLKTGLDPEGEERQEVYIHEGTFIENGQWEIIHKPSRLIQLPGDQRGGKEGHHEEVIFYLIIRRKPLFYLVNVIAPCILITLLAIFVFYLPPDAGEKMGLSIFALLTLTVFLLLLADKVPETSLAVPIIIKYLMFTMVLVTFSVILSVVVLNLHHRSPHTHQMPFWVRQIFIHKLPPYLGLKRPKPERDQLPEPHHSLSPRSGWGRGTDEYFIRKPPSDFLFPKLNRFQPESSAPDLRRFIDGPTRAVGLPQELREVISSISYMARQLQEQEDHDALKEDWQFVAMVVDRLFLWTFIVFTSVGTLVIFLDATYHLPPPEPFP
Chain of nicotinic acetylcholine receptor (P04760 23-519): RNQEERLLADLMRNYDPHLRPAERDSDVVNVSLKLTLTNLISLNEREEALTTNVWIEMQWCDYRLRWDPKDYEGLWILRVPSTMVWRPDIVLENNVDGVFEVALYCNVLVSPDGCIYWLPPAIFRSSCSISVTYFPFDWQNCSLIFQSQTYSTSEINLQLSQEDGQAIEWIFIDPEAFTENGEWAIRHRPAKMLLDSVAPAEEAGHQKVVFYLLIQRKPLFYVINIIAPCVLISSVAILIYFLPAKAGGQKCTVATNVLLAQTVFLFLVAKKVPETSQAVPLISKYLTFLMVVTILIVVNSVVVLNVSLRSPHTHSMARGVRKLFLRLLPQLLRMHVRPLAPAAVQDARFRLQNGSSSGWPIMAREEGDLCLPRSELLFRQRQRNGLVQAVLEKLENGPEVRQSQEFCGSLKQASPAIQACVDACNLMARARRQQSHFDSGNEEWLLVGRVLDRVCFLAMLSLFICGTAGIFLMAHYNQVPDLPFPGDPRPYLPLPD
Chain of nicotinic acetylcholine receptor (P02716 25-520): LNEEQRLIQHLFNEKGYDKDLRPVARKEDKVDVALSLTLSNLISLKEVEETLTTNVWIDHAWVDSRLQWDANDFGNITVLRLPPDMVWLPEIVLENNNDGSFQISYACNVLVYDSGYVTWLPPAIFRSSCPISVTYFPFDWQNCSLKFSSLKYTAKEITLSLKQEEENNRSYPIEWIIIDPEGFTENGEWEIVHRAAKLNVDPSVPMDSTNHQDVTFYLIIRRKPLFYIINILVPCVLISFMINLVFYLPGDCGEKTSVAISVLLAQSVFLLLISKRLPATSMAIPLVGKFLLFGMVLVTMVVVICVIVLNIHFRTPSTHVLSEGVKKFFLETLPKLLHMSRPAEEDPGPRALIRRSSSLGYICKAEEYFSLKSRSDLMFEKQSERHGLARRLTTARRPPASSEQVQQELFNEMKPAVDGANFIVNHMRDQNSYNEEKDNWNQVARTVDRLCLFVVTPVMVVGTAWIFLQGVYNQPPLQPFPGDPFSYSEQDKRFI
T1 sequence (P04756 21-457): as the sequence (P04756 21-457) above
T1 sequence (P09690 24-501): as the sequence (P09690 24-501) above
T1 sequence (P04760 23-519): as the sequence (P04760 23-519) above
T1 sequence (P02716 25-520): as the sequence (P02716 25-520) above

For `COC(=O)C1C(OC(C)=O)CC2CCC1N2C` (stereo not shown) [3.Acetoxy EME, 3-Acetoxy EME], the Kd in data set [1] (setting [7]) is 3.3 µM.
With `COC(=O)C1C(O)CC2CCC1N2C` (stereo not shown) [EME, ecgonine methyl ester], the “Morris water maze probe test, group result, reversal of scopolamine impairment” value in data set [2] (EME (10 mg/kg) combined with scopolamine (1 mg/kg), single dose, group size 10) was “reversed the scopolamine effect; also recorded: restore function impaired by scopolamine”. In addition, the “Morris water maze probe test, group result versus controls” value in data set [2] (EME alone, single dose, normal healthy rats, group size 10) is recorded as “no effect on its own”. The “Morris water maze individual swimming trace, finding of target area” value in data set [2] was “found the target area”. The “Alleviation of cocaine inhibition of the nicotinic acetylcholine receptor” value in data set [3] (cocaine present (200 μM for EME)) is recorded as “Alleviation of cocaine inhibition”. In data set [4], the Survival entry is “increased survival and 9/40”. In addition, the Kp in data set [5] is around 10. Besides, in data set [1] (setting [8]), the Kd is 0.8 to 12.7 µM. Besides, the “Predicted half-life in humans” value in data set [6] (predicted from persistence in rats) is 6 to 8 h. In data set [6] (rat, 10 mg/kg IP), the “Absorption after the IP dose” value was “rapid absorption”, the “Decay of plasma concentrations” value is given as “biexponential decay”, the “Time of maximal brain concentration” value came to 2 h and the “Time of peak plasma concentration” value is “already peaked at one hour”. Besides, the Brain penetration entry in data set [6] (rat, in vivo) was “readily penetrates the brain”.
As to `CN1C2CCC1C(C(=O)O)C(O)C2` (stereo not shown) [Ecgonine, ecgonine], in data set [1] (setting [8]), the Kd is 3.5 µM.
As to `COC(=O)C1=CC(=O)C2CC(S(=O)(=O)c3ccccc3)C1N2C` (stereo not shown) [RCS-111-140A], the Kd in data set [1] (setting [7]) was 0.8 to 8.2 µM; in data set [1] (unit inferred, read-out: KD(alv)) it was 0.8 µM.
`CN1C2CC(S(=O)(=O)c3ccccc3)C1C(C(=O)O)=CC2=O` (stereo not shown) [RCS-111-143]: the equilibrium dissociation constant (Kd) in data set [1] (setting [7]) is 3.3 µM.
For the molecule `COC(=O)C1=C(c2ccccc2)C(=O)C2CC(S(=O)(=O)c3ccccc3)C1N2C` (stereo not shown) [RCS-111-202A], in data set [1] (setting [7]), the Kd is 2.8 µM.
Consider `CN1C2CC(S(=O)(=O)c3ccccc3)C1C(C(=O)O)=C(c1ccccc1)C2=O` (stereo not shown) [RCS-111-218], for which the Kd in data set [1] (setting [7]) was 5 µM.
In the case of `CN1C2CCC1C(C(=O)O)C(c1ccc(Cl)cc1)C2` (stereo not shown) [RTI Compound], the Kd in data set [1] (setting [8]) was 0.7 to 14 µM; in data set [1] (read-out: KD(alv), unit inferred), 0.7 µM.
With `CN1[C@@H]2C[C@@H](OC(=O)[C@H](CO)c3ccccc3)C[C@H]1[C@@H]1O[C@@H]12` [scopolamine, reference compound], the “Morris water maze individual swimming trace, finding of target area” value in data set [2] is given as “showed no preference”. The “Morris water maze probe test, group result” value in data set [2] (scopolamine alone (1 mg/kg), group size 10, p<0.05) is reported as “showed the impairment”.
“aptamer 3: Class 2 RNA aptamer, SEQ ID NO:56 (AGUAGGAAUACCCCCAUCCAAAGCUCGCUAGGCUGAACAC; RNA, backbone not given here)”: the “Effect on whole-cell current generated by carbamoylcholine” value in data set [3] (5 μM aptamer, −60 mV, 22° C., pH 7.4, no inhibitor) was “no effect”.
